Experimental data published in patent US8252821B2, “Bioavailable capsule compositions of amorphous alpha-(N-sulfonamido)acetamide compound” (Bristol-Myers Squibb Company, priority 2009, dated 2012).

Assays:
Format in all cases: physicochemical
[1] = Aqueous solubility of the active compound; conditions: water; at about room temperature
[2] = Solubility of solubilized capsule formulations in FaSSIF at 37° C.; conditions: FaSSIF pH 6.5, 37° C.
[3] = Solubility of solubilized capsule formulations in FeSSIF at 37° C.; conditions: FeSSIF pH 5.0, 37° C.
[4] = Solubility of solubilized capsule formulations in SGF at 37° C.

solubility [1]: < 1 µg/mL
ACTIVE COMPOUND Concentration ([2]; 5 Min.): 2.5 µg/mL
ACTIVE COMPOUND Concentration ([2]; 15 Min.): 3.8 µg/mL
ACTIVE COMPOUND Concentration ([2]; 24 Hr.): 7.7 µg/mL
ACTIVE COMPOUND Concentration ([2]; 30 Min.): 4.6 µg/mL
ACTIVE COMPOUND Concentration ([2]; 60 Min.): 6.0 µg/mL
ACTIVE COMPOUND Concentration ([3]; 5 Min.): 9.7 µg/mL
ACTIVE COMPOUND Concentration ([3]; 15 Min.): 11.5 µg/mL
ACTIVE COMPOUND Concentration ([3]; 30 Min.): 13.3 µg/mL
ACTIVE COMPOUND Concentration ([3]; 60 Min.): 15.3 µg/mL
ACTIVE COMPOUND Concentration ([4]; 5 Min.): 0.0 µg/mL
ACTIVE COMPOUND Concentration ([4]; 15 Min.): 4.6 µg/mL
ACTIVE COMPOUND Concentration ([4]; 24 Hr.): 1.0 µg/mL
ACTIVE COMPOUND Concentration ([4]; 30 Min.): 1.6 µg/mL
ACTIVE COMPOUND Concentration ([4]; 60 Min.): 1.0 µg/mL
SMILES: NC(=O)[C@@H](CCC(F)(F)F)N(Cc1ccc(-c2ncon2)cc1F)S(=O)(=O)c1ccc(Cl)cc1 [Active Compound, (2R)-2-[[(4-chlorophenyl)sulfonyl][[2-fluoro-4-(1,2,4-oxadiazol-3-yl)phenyl]methyl]amino]-5,5,5-trifluoropentanamide]
